# Measurements from ChEMBL document CHEMBL1201862, “PubChem BioAssay data set” (2004).
#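 Assay format: 96-well plates, 48-hour exposure. GI50: concentration for 50% inhibition of growth.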 The source made the active and inactive calls. No stated cut-off is given here; in the data, active = GI50 up to about 1.1 µM and inactive = higher.
# What was measured:
# Assay in all cases: NCI anticancer screen, dose series, 48 h
# HOP-92 = tested on: HOP-92
# U-251 = tested on: U-251
# HCC 2998 = tested on: HCC 2998
# LOX IMVI = tested on: LOX IMVI
# Hs-578T = tested on: Hs-578T
# CAKI-1 = tested on: CAKI-1
# Malme-3M = tested on: Malme-3M
# MOLT-4 = tested on: MOLT-4
# SF-268 = tested on: SF-268
# MCF7 = tested on: MCF7
# BT-549 = tested on: BT-549
# MDA-MB-231 = tested on: MDA-MB-231
# SK-MEL-2 = tested on: SK-MEL-2
# UACC-62 = tested on: UACC-62
# 786-0 = tested on: 786-0
# NCI/ADR-RES = tested on: NCI/ADR-RES
# PC-3 = tested on: PC-3
# KM12 = tested on: KM12
# HCT-116 = tested on: HCT-116
# SF-539 = tested on: SF-539
Compound,GI50 (HOP-92),GI50 (U-251),GI50 (HCC 2998),GI50 (LOX IMVI),GI50 (Hs-578T),GI50 (CAKI-1),GI50 (Malme-3M),GI50 (MOLT-4),GI50 (SF-268),GI50 (MCF7),GI50 (BT-549),GI50 (MDA-MB-231),GI50 (SK-MEL-2),GI50 (UACC-62),GI50 (786-0),GI50 (NCI/ADR-RES),GI50 (PC-3),GI50 (KM12),GI50 (HCT-116),GI50 (SF-539)
Cn1ncc2c(NCCc3ccccc3)nc(Cl)nc21,15.3 µM (inactive),30.2 µM (inactive),18.8 µM (inactive),16.7 µM (inactive),8.93 µM (inactive),28.1 µM (inactive),58.9 µM (inactive),14.7 µM (inactive),38.2 µM (inactive),30 µM (inactive),23.5 µM (inactive),3.97 µM (inactive),10.7 µM (inactive),5.97 µM (inactive),23.4 µM (inactive),16.4 µM (inactive),17.9 µM (inactive),26.2 µM (inactive),27.8 µM (inactive),
COC(=O)[C@H](Cc1c[nH]c2ccccc12)NC(=O)c1ccccc1I,16.9 µM (inactive),31 µM (inactive),26.4 µM (inactive),19.7 µM (inactive),9.84 µM (inactive),20.7 µM (inactive),18.7 µM (inactive),17.5 µM (inactive),19.8 µM (inactive),37.8 µM (inactive),> 100 µM (inactive),29.1 µM (inactive),19.9 µM (inactive),18.2 µM (inactive),16.1 µM (inactive),32.1 µM (inactive),24.6 µM (inactive),41.4 µM (inactive),16.3 µM (inactive),
CCCCn1c2c(n(CCCC)c1=S)-c1c(n(CCCC)c(=S)n1CCCC)SSSS2,0.301 µM (active),1.99 µM (inactive),7.59 µM (inactive),2.03 µM (inactive),3.82 µM (inactive),0.543 µM (active),0.36 µM (active),0.454 µM (active),3.44 µM (inactive),2.68 µM (inactive),0.973 µM (active),0.656 µM (active),2.09 µM (inactive),1.47 µM (inactive),1.38 µM (inactive),15 µM (inactive),0.414 µM (active),8.93 µM (inactive),2.24 µM (inactive),0.783 µM (active)
O=C(/N=C1/NCC(CN2CCN(c3ccccc3)CC2)O1)Nc1ccccc1 (centres undefined),> 100 µM (inactive),> 100 µM (inactive),> 100 µM (inactive),> 100 µM (inactive),> 100 µM (inactive),> 100 µM (inactive),> 100 µM (inactive),93.1 µM (inactive),> 100 µM (inactive),> 100 µM (inactive),> 100 µM (inactive),> 100 µM (inactive),> 100 µM (inactive),> 100 µM (inactive),> 100 µM (inactive),> 100 µM (inactive),> 100 µM (inactive),> 100 µM (inactive),> 100 µM (inactive),
c1ccc(Cc2nc(Cc3n[nH]c(Cc4ccccc4)n3)n[nH]2)cc1,> 100 µM (inactive),> 100 µM (inactive),> 100 µM (inactive),> 100 µM (inactive),11.8 µM (inactive),,,> 100 µM (inactive),> 100 µM (inactive),> 100 µM (inactive),> 100 µM (inactive),> 100 µM (inactive),> 100 µM (inactive),> 100 µM (inactive),> 100 µM (inactive),> 100 µM (inactive),> 100 µM (inactive),> 100 µM (inactive),> 100 µM (inactive),> 100 µM (inactive)
C(=C\c1cccc(/C=C/c2ccccn2)n1)/c1ccccn1,> 100 µM (inactive),> 100 µM (inactive),79.6 µM (inactive),66.4 µM (inactive),19.5 µM (inactive),50.7 µM (inactive),17.3 µM (inactive),31.5 µM (inactive),20.2 µM (inactive),26.6 µM (inactive),18.7 µM (inactive),> 100 µM (inactive),> 100 µM (inactive),27.1 µM (inactive),> 100 µM (inactive),39.2 µM (inactive),58.9 µM (inactive),46.8 µM (inactive),68.9 µM (inactive),> 100 µM (inactive)
c1ccc(CC(Nc2cccnc2)c2ccccc2)cc1 (centres undefined),17.4 µM (inactive),19.5 µM (inactive),21.2 µM (inactive),16.2 µM (inactive),37.2 µM (inactive),32.4 µM (inactive),29 µM (inactive),16.4 µM (inactive),40.6 µM (inactive),28.9 µM (inactive),25.2 µM (inactive),20 µM (inactive),18.4 µM (inactive),16.6 µM (inactive),21.3 µM (inactive),21.9 µM (inactive),24.8 µM (inactive),24.2 µM (inactive),15.5 µM (inactive),20.6 µM (inactive)
c1ccc2sc(SSSc3nc4ccccc4s3)nc2c1,> 100 µM (inactive),> 100 µM (inactive),> 100 µM (inactive),19.1 µM (inactive),> 100 µM (inactive),> 100 µM (inactive),> 100 µM (inactive),77.3 µM (inactive),> 100 µM (inactive),44.1 µM (inactive),> 100 µM (inactive),> 100 µM (inactive),> 100 µM (inactive),> 100 µM (inactive),44.4 µM (inactive),> 100 µM (inactive),> 100 µM (inactive),> 100 µM (inactive),> 100 µM (inactive),
CC(C)(C)c1cc(C(C)(C)C)c(SC2OC(CO)C(O)C(O)C2O)c(O)c1O (centres undefined),11.6 µM (inactive),7.43 µM (inactive),6.22 µM (inactive),8.95 µM (inactive),3.22 µM (inactive),17.9 µM (inactive),12.6 µM (inactive),9.1 µM (inactive),6.97 µM (inactive),5.4 µM (inactive),10.6 µM (inactive),17.8 µM (inactive),11.1 µM (inactive),2.2 µM (inactive),12.7 µM (inactive),10.3 µM (inactive),9.18 µM (inactive),6.87 µM (inactive),13.1 µM (inactive),3.48 µM (inactive)
CC(C)(C)C1=CC(O)(c2c3ccccc3c(C3(O)C=C(C(C)(C)C)C(=O)C(C(C)(C)C)=C3)c3ccccc23)C=C(C(C)(C)C)C1=O,< 0.01 µM (active),> 100 µM (inactive),,> 100 µM (inactive),> 100 µM (inactive),> 100 µM (inactive),> 100 µM (inactive),48.2 µM (inactive),> 100 µM (inactive),> 100 µM (inactive),> 100 µM (inactive),27 µM (inactive),> 100 µM (inactive),> 100 µM (inactive),> 100 µM (inactive),> 100 µM (inactive),> 100 µM (inactive),> 100 µM (inactive),> 100 µM (inactive),> 100 µM (inactive)
OC1CCC(C2C3CCCCC3C3CCCCC3C2C2CCC(O)CC2)CC1 (centres undefined),8.05 µM (inactive),3.6 µM (inactive),,2.31 µM (inactive),7.28 µM (inactive),3.62 µM (inactive),15.8 µM (inactive),4.39 µM (inactive),2.99 µM (inactive),3.4 µM (inactive),3.89 µM (inactive),3.27 µM (inactive),5.56 µM (inactive),7.16 µM (inactive),4.16 µM (inactive),4.58 µM (inactive),5.31 µM (inactive),3.33 µM (inactive),4.52 µM (inactive),10.6 µM (inactive)
O=C(NC(Cc1c[nH]cn1)C(=O)N1CCCC1)C1CCCC1 (centres undefined),> 100 µM (inactive),> 100 µM (inactive),> 100 µM (inactive),> 100 µM (inactive),83.8 µM (inactive),> 100 µM (inactive),> 100 µM (inactive),> 100 µM (inactive),,> 100 µM (inactive),> 100 µM (inactive),> 100 µM (inactive),,> 100 µM (inactive),> 100 µM (inactive),> 100 µM (inactive),> 100 µM (inactive),> 100 µM (inactive),> 100 µM (inactive),
CC(=O)Oc1ccc2c3c1[C@@H]1O[C@@H]1c1cccc(c1-3)[C@@H]1O[C@H]21,1.81 µM (inactive),2.12 µM (inactive),2 µM (inactive),0.962 µM (active),2.87 µM (inactive),1.59 µM (inactive),1.86 µM (inactive),,2.11 µM (inactive),2.55 µM (inactive),1.87 µM (inactive),2.02 µM (inactive),2.37 µM (inactive),1.87 µM (inactive),1.48 µM (inactive),1.82 µM (inactive),2.33 µM (inactive),2.05 µM (inactive),1.66 µM (inactive),
C=C1C2C[C@@H]3O[C@H]4C[C@H]5O[C@@]6(C[C@@H]7O[C@]8(C[C@H](C)[C@@H]9O[C@@H]%10CC(C=O)O[C@@H]%10C[C@@H]9O8)C[C@H](C)[C@@H]7O6)C[C@H]5O[C@H]4[C@H](C)[C@H]3OC(=O)C[C@H]3CC[C@@H]4OC5[C@H]6O[C@]7(CC[C@H]8CC(=C)[C@H](CC[C@@H](C[C@H]1C)O2)O8)CC6O[C@@H]5[C@@H](O7)[C@H]4O3 (some centres undefined),0.000724 µM (active),< 0.0001 µM (active),< 0.0001 µM (active),< 0.0001 µM (active),< 0.0001 µM (active),< 0.0001 µM (active),,< 0.0001 µM (active),< 0.0001 µM (active),< 0.0001 µM (active),< 0.0001 µM (active),0.000229 µM (active),,< 0.0001 µM (active),< 0.0001 µM (active),0.000951 µM (active),< 0.0001 µM (active),< 0.0001 µM (active),< 0.0001 µM (active),
